According to US12077503B2, “Substituted cyclic amides and their use as herbicides” (FMC CORPORATION, priority 2015, dated 2024):

Assays:
Assay type in all cases: in vivo
[1] = tested on: wheat (Triticum aestivum); experiment: Test A postemergence; details: Triticum aestivum, post-emergence, 240 h
How it was run: (§1)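 Compounds were formulated in a non-phytotoxic solvent mixture with surfactant and applied as a preemergence directed soil spray after seeding, or sprayed postemergence over plants 2 to 10 cm tall at the one- to two-leaf stage. Evaluation after about 10 d compared treated with untreated controls, using a scale from 0 (no effect) to 100 (complete control).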

[2] = tested on: Galium (catchweed bedstraw, Galium aparine); experiment: Test A postemergence; details: Galium, post-emergence, 240 h
How it was run: as §1

[3] = tested on: pigweed (Amaranthus retroflexus); experiment: Test A postemergence; details: Amaranthus retroflexus, post-emergence, 240 h
How it was run: as §1

Kochia (Kochia scoparia) [4] = experiment: Test A postemergence; details: Bassia scoparia, post-emergence, 240 h
How it was run: as §1

[5] = tested on: giant foxtail (Setaria faberii); experiment: Test A postemergence; details: Setaria faberi, post-emergence, 240 h
How it was run: as §1

[6] = tested on: barnyardgrass (Echinochloa crus-galli); experiment: Test B flooded paddy test; details: Echinochloa crus-galli, Flood, 250 g ai/ha; scale of 0 to 100 where 0 is no effect and 100 is complete control; read-out: Barnyardgrass plant response rating
How it was run: (§2)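 Evaluation by eye, against controls, occurred 13–15 d post-treatment in a greenhouse, using a 0 (no effect) to 100 (complete control) scale. Application was into the paddy water, 3 cm deep over the soil, on 2-leaf plants.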

[7] = tested on: ducksalad (Heteranthera limosa); experiment: Test B flooded paddy test; details: Heteranthera limosa, Flood, 250 g ai/ha; scale of 0 to 100 where 0 is no effect and 100 is complete control; read-out: Ducksalad plant response rating
How it was run: as §2

[8] = tested on: sedge, umbrella (small-flower umbrella sedge, Cyperus difformis); experiment: Test B flooded paddy test; details: Cyperus difformis, Flood, 250 g ai/ha; scale of 0 to 100 where 0 is no effect and 100 is complete control; read-out: Sedge, Umbrella plant response rating
How it was run: as §2

rice (Oryra sativa) = experiment: Test B flooded paddy test; details: Oryza sativa, Flood, 250 g ai/ha; scale of 0 to 100 where 0 is no effect and 100 is complete control; read-out: Rice plant response rating
How it was run: as §2

[9] = tested on: ragweed (common ragweed, Ambrosia elatior); experiment: Test A preemergence; details: Ambrosia artemisiifolia, pre-emergence, 240 h, read-out: Plant response rating, Ragweed
How it was run: as §1

[10] = tested on: pigweed (Amaranthus retroflexus); experiment: Test A preemergence; details: Amaranthus retroflexus, pre-emergence, 240 h, read-out: Plant response rating, Pigweed
[11] = tested on: ryegrass, Italian (Italian ryegrass, Lolium multiflorum); experiment: Test A preemergence; details: Lolium multiflorum, pre-emergence, 240 h, read-out: Plant response rating, Ryegrass, Italian
How it was run: as §1

[12] = tested on: barnyardgrass (Echinochloa crus-galli); experiment: Test A preemergence; details: Echinochloa crus-galli, pre-emergence, 240 h, read-out: Plant response rating, Barnyardgrass
How it was run: as §1

Kochia (Kochia scoparia) [13] = experiment: Test A preemergence; details: Bassia scoparia, pre-emergence, 240 h, read-out: Plant response rating, Kochia
How it was run: as §1

[14] = tested on: giant foxtail (Setaria faberii); experiment: Test A preemergence; details: Setaria faberi, pre-emergence, 240 h, read-out: Plant response rating, Foxtail, Giant
How it was run: as §1

[15] = 125 g ai/ha, preemergence, visual rating after approx. 10 d, 0 to 100 scale where 0 is no effect and 100 is complete control
[16] = Preemergence, 31 g ai/ha, 0 to 100 scale (0 no effect, 100 complete control)

SMILES: CSc1ccccc1NC(=O)[C@H]1C(=O)N(C)CC[C@@H]1c1ccc2c(c1)OC(F)(F)O2 [Compound 814]
- plant injury at 125 g/ha ([1]; 125 g ai/ha, postemergence, visual injury rating after approximately 10 d, read-out: Wheat plant response rating (0 to 100 scale, 0 no effect, 100 complete control)): 0%
- plant injury at 31 g/ha ([1]; Postemergence, 31 g ai/ha, visual injury after approx. 10 d, 0 to 100 scale, 0 no effect, 100 complete control, read-out: Plant response rating, Wheat): 0%
- pest or weed control at 125 g/ha ([2]; 125 g ai/ha, postemergence, visual injury rating after approximately 10 d, read-out: Galium plant response rating (0 to 100 scale, 0 no effect, 100 complete control)): 0%
- pest or weed control at 31 g/ha ([2]; Postemergence, 31 g ai/ha, visual injury after approx. 10 d, 0 to 100 scale, 0 no effect, 100 complete control, read-out: Plant response rating, Galium): 0%
- pest or weed control at 125 g/ha ([3]; 125 g ai/ha, postemergence, visual injury rating after approximately 10 d, read-out: Pigweed plant response rating (0 to 100 scale, 0 no effect, 100 complete control)): 0%
- pest or weed control at 31 g/ha ([3]; Postemergence, 31 g ai/ha, visual injury after approx. 10 d, 0 to 100 scale, 0 no effect, 100 complete control, read-out: Plant response rating, Pigweed): 0%
- pest or weed control at 125 g/ha (Kochia (Kochia scoparia) [4]; 125 g ai/ha, postemergence, visual injury rating after approximately 10 d, read-out: Kochia plant response rating (0 to 100 scale, 0 no effect, 100 complete control)): 0%
- pest or weed control at 31 g/ha (Kochia (Kochia scoparia) [4]; Postemergence, 31 g ai/ha, visual injury after approx. 10 d, 0 to 100 scale, 0 no effect, 100 complete control, read-out: Plant response rating, Kochia): 0%
- pest or weed control at 125 g/ha ([5]; 125 g ai/ha, postemergence, visual injury rating after approximately 10 d, read-out: Foxtail, Giant plant response rating (0 to 100 scale, 0 no effect, 100 complete control)): 0%
- pest or weed control at 31 g/ha ([5]; Postemergence, 31 g ai/ha, visual injury after approx. 10 d, 0 to 100 scale, 0 no effect, 100 complete control, read-out: Plant response rating, Foxtail, Giant): 0%
- pest or weed control at 250 g/ha [6]: 0%
- pest or weed control at 250 g/ha [7]: 50%
- pest or weed control at 250 g/ha [8]: 60%
- pest or weed control at 250 g/ha (rice (Oryra sativa)): 0%
- pest or weed control at 125 g/ha [9, 15]: 0%
- pest or weed control at 31 g/ha [9, 16]: 0%
- pest or weed control at 125 g/ha [10, 15]: 0%
- pest or weed control at 31 g/ha [10, 16]: 0%
- pest or weed control at 125 g/ha [11, 15]: 0%
- pest or weed control at 31 g/ha [11, 16]: 0%
- pest or weed control at 125 g/ha [12, 15]: 0%
- pest or weed control at 31 g/ha [12, 16]: 0%
- pest or weed control at 125 g/ha (Kochia (Kochia scoparia) [13]; [15]): 0%
- pest or weed control at 31 g/ha (Kochia (Kochia scoparia) [13]; [16]): 0%
- pest or weed control at 125 g/ha [14, 15]: 0%
- pest or weed control at 31 g/ha [14, 16]: 0%
